From patent US6737383B1, “Herbicidal oxadiazolidines” (priority 1999, dated 2004)

Assays:
crabgrass = assay: Test B pre/postemergence crabgrass; format: in vivo, Digitaria sanguinalis
Procedure, shortened: (§1)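 Response is a visual 0-to-10 score relative to untreated plants, where 0 means no effect and 10 means complete control, taken twelve to sixteen days after application. Treatments went onto soil at planting and onto foliage of 1- to 4-leaf plants, using a surfactant-containing non-phytotoxic solvent.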

morningglory = assay: Test B pre/postemergence morningglory; format: in vivo, Ipomoea hederacea
Procedure, shortened: as §1

bamyardgrass = assay: Test B flood test barnyardgrass; format: in vivo, Echinochloa crus-galli
Procedure, shortened: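 Plants were grown to the 2-leaf stage before treatment with test chemical, then held in a greenhouse for twelve to sixteen days. Injury was visually rated against untreated controls on a 0–10 scale, where 0 is no effect and 10 is complete control.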

blackgrass = assay: Test B pre/postemergence blackgrass; format: in vivo, Alopecurus myosuroides
Procedure, shortened: as §1

[1] = Preemergence, Rate 62 g/ha, scale of 0 to 10 where 0 is no effect and 10 is complete control
[2] = Preemergence, Rate 125 g/ha, 0 is no effect, 10 is complete control
[3] = Preemergence, Rate 250 g/ha, scale 0 to 10, 0 is no effect, 10 is complete control
[4] = Preemergence, Rate 500 g/ha, scale of 0 to 10 where 0 is no effect and 10 is complete control
[5] = Rate 62 g/ha, Postemergence, scale of 0 to 10 where 0 is no effect and 10 is complete control
[6] = Rate 125 g/ha, Postemergence, scale 0 to 10
[7] = Rate 500 g/ha, Postemergence, scale 0 to 10
[8] = Rate 62 g/ha, headed Pre-emergence (flood test species), scale 0 to 10 (0 no effect, 10 complete control)
[9] = Rate 125 g/ha, Pre-emergence, flood test species, scale 0 to 10 where 0 is no effect and 10 is complete control
[10] = Rate 250 g/ha, Pre-emergence, flood-test species, scale 0 to 10, 0 is no effect, 10 is complete control
[11] = Preemergence, Rate 250 g/ha, scale of 0 to 10 where 0 is no effect and 10 is complete control
[12] = Rate 125 g/ha, Preemergence, scale of 0 to 10 where 0 is no effect and 10 is complete control
[13] = Rate 500 g/ha, Postemergence, scale 0 to 10, 0 no effect, 10 complete control
[14] = Rate 500 g/ha, Pre-emergence, flood test species, scale 0 to 10 (0 no effect, 10 complete control)

Compound: Cc1ccccc1-n1c(=O)on(C(=O)N(c2ccc(S(C)(=O)=O)cc2)C(C)C)c1=O [Compound 203]
- Crabgrass plant response rating (crabgrass; [1]): 0
- Crabgrass plant response rating (0 to 10 scale) (crabgrass; [2]): 0
- Crabgrass plant response rating (crabgrass; [3]): 0
- Plant response rating, Crabgrass (crabgrass; [4]): 0
- Crabgrass plant response rating (crabgrass; [5]): 0
- Crabgrass plant response rating (crabgrass; [6]): 0
- Plant response rating (0 to 10; 0 is no effect, 10 is complete control), Crabgrass (crabgrass; Rate 250 g/ha, Postemergence): 0
- Crabgrass plant response rating (crabgrass; [7]): 0
- Morningglory plant response rating (morningglory; [1]): 0
- Morningglory plant response rating (0 to 10 scale) (morningglory; [2]): 0
- Morningglory plant response rating (morningglory; [3]): 0
- Plant response rating, Morningglory (morningglory; [4]): 0
- Morningglory plant response rating (morningglory; [5]): 0
- Morningglory plant response rating (morningglory; [6]): 0
- Plant response rating (0 to 10; 0 is no effect, 10 is complete control), Morningglory (morningglory; Rate 250 g/ha, Postemergence): 0
- Morningglory plant response rating (morningglory; [7]): 0
- Barnyardgrass plant response rating (bamyardgrass; [8]): 0
- Barnyardgrass plant response rating (bamyardgrass; [9]): 0
- Barnyardgrass plant response rating (bamyardgrass; [10]): 0
- Plant response rating, Barnyardgrass (bamyardgrass; Rate 500 g/ha, headed Pre-emergence (flood test species), scale 0 to 10 (0 no effect, 10 complete control)): 0
- Blackgrass plant response rating (blackgrass; [1]): 0
- Blackgrass plant response rating (0 to 10 scale) (blackgrass; [2]): 0
- Blackgrass plant response rating (blackgrass; [3]): 0
- Plant response rating, Blackgrass (blackgrass; [4]): 0
- Blackgrass plant response rating (blackgrass; [5]): 0
- Blackgrass plant response rating (blackgrass; [6]): 0
- Plant response rating (0 to 10; 0 is no effect, 10 is complete control), Blackgrass (blackgrass; Rate 250 g/ha, Postemergence): 0
- Blackgrass plant response rating (blackgrass; [7]): 0

Compound: COCCOCn1c(=O)on(C(=O)N(c2ccc(F)cc2)C(C)C)c1=O [Compound 220]
- Crabgrass plant response rating (crabgrass; [1]): 7
- Crabgrass plant response rating (crabgrass; [11]): 8
- Plant response rating, Crabgrass (crabgrass; [4]): 10
- Crabgrass plant response rating (crabgrass; [5]): 3
- Crabgrass plant response rating (crabgrass; [6]): 5
- Crabgrass plant response rating (crabgrass; [12]): 7
- Plant response rating (0 to 10; 0 is no effect, 10 is complete control), Crabgrass (crabgrass; Rate 250 g/ha, Postemergence): 7
- Crabgrass plant response rating (crabgrass; [13]): 9
- Morningglory plant response rating (morningglory; [1]): 0
- Morningglory plant response rating (morningglory; [11]): 1
- Plant response rating, Morningglory (morningglory; [4]): 6
- Morningglory plant response rating (morningglory; [5]): 5
- Morningglory plant response rating (morningglory; [6]): 5
- Morningglory plant response rating (morningglory; [12]): 0
- Plant response rating (0 to 10; 0 is no effect, 10 is complete control), Morningglory (morningglory; Rate 250 g/ha, Postemergence): 8
- Morningglory plant response rating (morningglory; [13]): 8
- Barnyardgrass plant response rating (bamyardgrass; [8]): 0
- Barnyardgrass plant response rating (bamyardgrass; [9]): 0
- Barnyardgrass plant response rating (bamyardgrass; [10]): 2
- Barnyardgrass plant response rating (bamyardgrass; [14]): 3
- Blackgrass plant response rating (blackgrass; [1]): 8
- Blackgrass plant response rating (blackgrass; [11]): 10
- Plant response rating, Blackgrass (blackgrass; [4]): 10
- Blackgrass plant response rating (blackgrass; [5]): 5
- Blackgrass plant response rating (blackgrass; [6]): 7
- Blackgrass plant response rating (blackgrass; [12]): 9
- Plant response rating (0 to 10; 0 is no effect, 10 is complete control), Blackgrass (blackgrass; Rate 250 g/ha, Postemergence): 8
- Blackgrass plant response rating (blackgrass; [13]): 8

Compound: Cc1cc(C)c(-n2c(=O)on(C(=O)N(c3ccc(F)cc3)C(C)C)c2=O)c(Br)c1 [Compound 224]
- Crabgrass plant response rating (crabgrass; [1]): 2
- Crabgrass plant response rating (crabgrass; [11]): 9
- Plant response rating, Crabgrass (crabgrass; [4]): 10
- Crabgrass plant response rating (crabgrass; [5]): 0
- Crabgrass plant response rating (crabgrass; [6]): 0
- Crabgrass plant response rating (crabgrass; [12]): 5
- Plant response rating (0 to 10; 0 is no effect, 10 is complete control), Crabgrass (crabgrass; Rate 250 g/ha, Postemergence): 3
- Crabgrass plant response rating (crabgrass; [13]): 0
- Morningglory plant response rating (morningglory; [1]): 0
- Morningglory plant response rating (morningglory; [11]): 0
- Plant response rating, Morningglory (morningglory; [4]): 0
- Morningglory plant response rating (morningglory; [5]): 2
- Morningglory plant response rating (morningglory; [6]): 2
- Morningglory plant response rating (morningglory; [12]): 0
- Plant response rating (0 to 10; 0 is no effect, 10 is complete control), Morningglory (morningglory; Rate 250 g/ha, Postemergence): 5
- Morningglory plant response rating (morningglory; [13]): 6
- Barnyardgrass plant response rating (bamyardgrass; [8]): 0
- Barnyardgrass plant response rating (bamyardgrass; [9]): 0
- Barnyardgrass plant response rating (bamyardgrass; [10]): 0
- Barnyardgrass plant response rating (bamyardgrass; [14]): 0
- Blackgrass plant response rating (blackgrass; [1]): 2
- Blackgrass plant response rating (blackgrass; [11]): 3
- Plant response rating, Blackgrass (blackgrass; [4]): 5
- Blackgrass plant response rating (blackgrass; [5]): 0
- Blackgrass plant response rating (blackgrass; [6]): 0
- Blackgrass plant response rating (blackgrass; [12]): 2
- Plant response rating (0 to 10; 0 is no effect, 10 is complete control), Blackgrass (blackgrass; Rate 250 g/ha, Postemergence): 3
- Blackgrass plant response rating (blackgrass; [13]): 4
